# Test results taken from patent publication US7696249B2, “Diphenyl urea derivatives” (ARPIDA AG, priority 2005, dated 2010).
# Where two headings read alike, the source gives them in different places.
# Assays:
# Type in all cases: cell-based
# [1] = test system: S. aureus MRSA 39; assay: MIC, broth dilution antimicrobial susceptibility testing (CLSI); details: for MIC: Staphylococcus aureus, MRSA, pathogens for nasal colonization, read-out: Minimum Inhibitory Concentration (MIC) S. aureus MRSA 39
# Experimental: (§1) Antimicrobial susceptibility testing was performed in accordance with the Clinical and Laboratory Standards Institute (CLSI).
# (§2) Clinical and Laboratory Standards Institute (CLSI; formerly NCCLS): Methods for Dilution Antimicrobial Susceptibility Tests for Bacteria That Grow Aerobically; Approved Standard—Seventh Edition (2006). Clinical and Laboratory Standards Institute document M7-A7.
# [2] = test system: S. aureus MRSA 101; assay: as above; details: for MIC: Staphylococcus aureus, MRSA, pathogens for nasal colonization, read-out: Minimum Inhibitory Concentration (MIC) S. aureus MRSA 101; for Minimum Inhibitory Concentration (MIC) S. aureus MRSA 101: pathogens for ocular infections
# Experimental: as §1, §2
# [3] = test system: S. epidermidis MRSE 70; assay: as above; details: for MIC: Staphylococcus epidermidis, MRSE, pathogens for nasal colonization, read-out: Minimum Inhibitory Concentration (MIC) S. epidermidis MRSE 70
# Experimental: as §1, §2
# [4] = test system: S. aureus ATCC 25923; assay: as above; details: Staphylococcus aureus, ATCC25923
# Experimental: as §1, §2
# [5] = test system: E. faecalis VanB E80-8; assay: as above; details: for MIC: Enterococcus faecalis, VANBE808, pathogens for skin infections, read-out: Minimum Inhibitory Concentration (MIC) E. faecalis VanB E80-8; for Minimum Inhibitory Concentration (MIC) E. faecalis VanB E80-8: pathogens for gastro-intestinal infections
# Experimental: as §1, §2
# [6] = test system: S. pyogenes GAS-1; assay: MIC, CLSI methodology with Todd Hewitt Broth without blood; details: for MIC: Streptococcus pyogenes, GAS1, pathogens for ocular infections, read-out: Minimum Inhibitory Concentration (MIC) S. pyogenes GAS-1; for Minimum Inhibitory Concentration (MIC) S. pyogenes GAS-1: pathogens for skin infections
# Experimental: (§3) Antimicrobial susceptibility testing was performed in accordance with the Clinical and Laboratory Standards Institute (CLSI). Clinical and Laboratory Standards Institute (CLSI; formerly NCCLS): Methods for Dilution Antimicrobial Susceptibility Tests for Bacteria That Grow Aerobically; Approved Standard—Seventh Edition (2006). Clinical and Laboratory Standards Institute document M7-A7. Streptococci (S. pneumoniae, S. pyogenes, S. viridans) were tested following the CLSI methodology with the exception that Todd Hewitt Broth without blood was used. Anaerobic bacteria (P. acnes, B. distasonis) were tested following CLSI (formerly NCCLS) guidelines except for using microbroth dilutions in Wilkins Chalgren Broth. National Committee for Clinical Laboratory Standards (NCCLS). Methods for Anti-microbial Susceptibility Testing of Anaerobic Bacteria; Approved Standard—Sixth Edition (2004). NCCLS document M11-A6.
# [7] = test system: S. viridans UHC 7; assay: as above; details: Streptococcus viridans, UHC7; pathogens for dental infections; read-out: Minimum Inhibitory Concentration (MIC) S. viridans UHC 7
# Experimental: as §3
# [8] = test system: S. pneumoniae 1/1; assay: as above; details: Streptococcus pneumoniae, pathogens for ocular infections, read-out: Minimum Inhibitory Concentration (MIC) S. pneumoniae 1/1
# Experimental: as §3
# [9] = test system: B. distasonis 5770; assay: MIC, anaerobic bacteria, microbroth dilutions in Wilkins Chalgren Broth; details: Parabacteroides distasonis, pathogens for gastro-intestinal infections, read-out: Minimum Inhibitory Concentration (MIC) B. distasonis 5770
# Experimental: as §3, with “(CLSI).” for “(CLSI). Clinical and Laboratory Standards Institute (CLSI; formerly NCCLS): Methods for Dilution Antimicrobial Susceptibility Tests for Bacteria That Grow Aerobically; Approved Standard—Seventh Edition (2006). Clinical and Laboratory Standards Institute document M7-A7.”
# [10] = test system: P. acnes 6390; assay: as above; details: Cutibacterium acnes, pathogens for skin infections, read-out: Minimum Inhibitory Concentration (MIC) P. acnes 6390
# Experimental: as §3, with “(CLSI).” for “(CLSI). Clinical and Laboratory Standards Institute (CLSI; formerly NCCLS): Methods for Dilution Antimicrobial Susceptibility Tests for Bacteria That Grow Aerobically; Approved Standard—Seventh Edition (2006). Clinical and Laboratory Standards Institute document M7-A7.”
# [11] = pathogens for ocular infections
# [12] = pathogens for nasal colonization, read-out: Minimum Inhibitory Concentration (MIC) S. aureus ATCC 25923
# [13] = pathogens for ocular infections, read-out: Minimum Inhibitory Concentration (MIC) S. aureus 25923
MIC [1],"Minimum Inhibitory Concentration (MIC) S. aureus MRSA 39 [1, 11]",Minimum Inhibitory Concentration (MIC) S. aureus MRSA 39 ([1]; pathogens for skin infections),MIC [2],Minimum Inhibitory Concentration (MIC) S. aureus MRSA 101 [2],MIC [3],"Minimum Inhibitory Concentration (MIC) S. epidermidis MRSE 70 [3, 11]",Minimum Inhibitory Concentration (MIC) S. epidermidis MRSE 70 ([3]; pathogens for skin infections),"MIC [4, 12]","MIC [4, 13]",MIC [5],Minimum Inhibitory Concentration (MIC) E. faecalis VanB E80-8 [5],MIC [6],Minimum Inhibitory Concentration (MIC) S. pyogenes GAS-1 [6],MIC [7],MIC [8],MIC [9],MIC [10],SMILES
0.125 µg/mL,0.125 micrograms/ml,0.125 micrograms/ml,0.125 µg/mL,0.125 micrograms/ml,0.25 µg/mL,0.25 micrograms/ml,0.25 micrograms/ml,0.125 µg/mL,0.125 µg/mL,1 µg/mL,1 micrograms/ml,0.125 µg/mL,0.125 micrograms/ml,0.5 µg/mL,0.06 µg/mL,0.25 µg/mL,≤ 0.03 µg/mL,"O=C(Nc1cc(F)cc(C(F)(F)F)c1)Nc1ccc(Cl)c(C(F)(F)F)c1 [Example 1, 1-(3-Fluoro-5-trifluoromethyl-phenyl)-3-(4-chloro-3-trifluoromethyl-phenyl)-urea]"
0.125 µg/mL,0.125 micrograms/ml,0.125 micrograms/ml,0.25 µg/mL,0.25 micrograms/ml,0.5 µg/mL,0.5 micrograms/ml,0.5 micrograms/ml,0.125 µg/mL,0.125 µg/mL,1 µg/mL,1 micrograms/ml,0.06 µg/mL,0.06 micrograms/ml,0.5 µg/mL,≤ 0.03 µg/mL,0.25 µg/mL,≤ 0.03 µg/mL,"O=C(Nc1cc(F)cc(C(F)(F)F)c1)Nc1ccc(Br)c(C(F)(F)F)c1 [Example 2, 1-(3-Fluoro-5-trifluoromethyl-phenyl)-3-(4-bromo-3-trifluoromethyl-phenyl)-urea]"
0.25 µg/mL,0.25 micrograms/ml,0.25 micrograms/ml,0.25 µg/mL,0.25 micrograms/ml,0.25 µg/mL,0.25 micrograms/ml,0.25 micrograms/ml,0.25 µg/mL,0.25 µg/mL,2 µg/mL,2 micrograms/ml,0.5 µg/mL,0.5 micrograms/ml,2 µg/mL,0.5 µg/mL,0.5 µg/mL,≤ 0.03 µg/mL,"Fc1cc(NC(=S)Nc2ccc(Cl)c(C(F)(F)F)c2)cc(C(F)(F)F)c1 [Example 3, 1-(3-Fluoro-5-trifluoromethyl-phenyl)-3-(4-chloro-3-trifluoromethyl-phenyl)-thiourea]"
